Laboratory results taken from ChEMBL document CHEMBL2177026, “Acyl guanidine inhibitors of β-secretase (BACE-1): optimization of a micromolar hit to a nanomolar lead via iterative solid- and solution-phase library synthesis” (J Med Chem, 2012).

Experiments:
Type in all cases: cell-based
Beta-secretase 1 [1] = molecular target: T1, Beta-secretase 1 (Homo sapiens, UniProt P56817); assay: Displacement of [3H]BMS-599240 from BACE1 expressed in HEK293 cells
Beta-secretase 1 [2] = molecular target: T1, Beta-secretase 1; assay: Ratio of IC50 for BACE1 in HEK293 cells expressing APP 695 Swedish mutant to Ki for BACE1
Beta-secretase 1 [3] = molecular target: T1, Beta-secretase 1; assay: Inhibition of BACE1 in human HEK293 cells expressing APP 695 Swedish mutant assessed as inhibition of amyloid beta (1 to 40) production after overnight incubation by ELISA
Beta-secretase 1 [4] = molecular target: T1, Beta-secretase 1; assay: Ratio of IC50 for BACE1 in human KBV1 cells expressing APP 751 Swedish mutant in absence of tariquidar to IC50 for BACE1 in human KBV1 cells expressing APP 751 Swedish mutant in presence of tariquidar
Beta-secretase 1 [5] = molecular target: T1, Beta-secretase 1; assay: Inhibition of BACE1 in human KBV1 cells expressing APP 751 Swedish mutant assessed as inhibition of amyloid beta (1 to 40) production after overnight incubation by ELISA in absence of tariquidar
Beta-secretase 1 [6] = molecular target: T1, Beta-secretase 1; assay: Inhibition of BACE1 in human KBV1 cells expressing APP 751 Swedish mutant assessed as inhibition of amyloid beta (1 to 40) production after overnight incubation by ELISA in presence of tariquidar

T1 sequence (P56817 whole entry): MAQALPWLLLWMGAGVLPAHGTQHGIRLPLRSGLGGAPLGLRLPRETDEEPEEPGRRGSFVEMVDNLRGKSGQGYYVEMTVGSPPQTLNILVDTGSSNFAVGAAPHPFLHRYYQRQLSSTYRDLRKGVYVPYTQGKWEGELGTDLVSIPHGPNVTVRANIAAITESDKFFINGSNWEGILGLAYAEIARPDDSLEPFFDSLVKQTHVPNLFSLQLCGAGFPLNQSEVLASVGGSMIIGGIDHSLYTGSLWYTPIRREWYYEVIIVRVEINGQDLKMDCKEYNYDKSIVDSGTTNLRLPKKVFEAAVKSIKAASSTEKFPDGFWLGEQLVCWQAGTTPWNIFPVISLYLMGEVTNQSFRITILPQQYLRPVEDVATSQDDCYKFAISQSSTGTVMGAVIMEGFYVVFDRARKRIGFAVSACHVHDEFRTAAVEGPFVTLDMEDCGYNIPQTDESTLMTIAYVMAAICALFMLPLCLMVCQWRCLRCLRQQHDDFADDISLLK

CCCOc1c(Cl)cc(CN=C(N)NC(=O)c2c(-c3ccc(OC)cc3)noc2C)cc1Cl
Ki (Beta-secretase 1 [1]): > 5000 nM

COc1ccc(-c2noc(C)c2C(=O)/N=C(\N)NCc2cc(Cl)cc(/C=C/CCO)c2)cc1
Ki (Beta-secretase 1 [1]): 140 nM

Cc1onc(-c2ccc(F)cc2)c1C(=O)/N=C(\N)NCc1cccc2ccccc12
Ki (Beta-secretase 1 [1]): 1800 nM

COc1ccc(-c2nsc(C)c2C(=O)/N=C(\N)NCc2cc(Cl)c(NC(=O)CN(C)C)c(Cl)c2)cc1
Ratio (Beta-secretase 1 [2]): 4 | Ki (Beta-secretase 1 [1]): 20 nM | IC50 (Beta-secretase 1 [3]): 70 nM

CCNCC(=O)Nc1c(C)cc(CN/C(N)=N/C(=O)c2c(-c3ccc(OC)cc3)nsc2C)cc1Cl
Ratio (Beta-secretase 1 [2]): 0.5 | Ki (Beta-secretase 1 [1]): 20 nM | IC50 (Beta-secretase 1 [3]): 10 nM

COc1ccc(-c2nsc(C)c2C(=O)/N=C(\N)NCc2cc(Cl)c(NC(=O)CN3CCC3)c(Cl)c2)cc1
Ratio (Beta-secretase 1 [2]): 2 | Ratio IC50 (Beta-secretase 1 [4]): 23

COc1ccc(-c2nsc(C)c2C(=O)/N=C(\N)NCc2cc(C)c(NC(=O)CN(C)C)c(Cl)c2)cc1
Ratio (Beta-secretase 1 [2]): 1

COc1ccc(-c2nsc(C)c2C(=O)/N=C(\N)NCc2cc(C)c(NC(=O)c3ccccc3)c(Cl)c2)cc1
Ratio (Beta-secretase 1 [2]): 13 | Ki (Beta-secretase 1 [1]): 30 nM | IC50 (Beta-secretase 1 [3]): 430 nM

COc1ccc(-c2nsc(C)c2C(=O)/N=C(\N)NCc2cc(Cl)c(N)c(Cl)c2)cc1
Ratio IC50 (Beta-secretase 1 [4]): 1.7

COc1ccc(-c2noc(C)c2C(=O)NC(N)=NCc2cc(Cl)c(N)c(Cl)c2)cc1
Ki (Beta-secretase 1 [1]): 120 nM

COc1ccc(-c2noc(C)c2C(=O)NC(N)=NCc2cc(Cl)c(NC(=O)CSC)c(Cl)c2)cc1
Ki (Beta-secretase 1 [1]): 50 nM | IC50 (Beta-secretase 1 [3]): 2000 nM

COc1ccc(-c2nsc(C)c2C(=O)/N=C(\N)NCc2cc(Cl)c(NC(=O)CNCc3ccccc3)c(Cl)c2)cc1
Ratio (Beta-secretase 1 [2]): 23

Cc1onc(-c2ccc(F)cc2)c1C(=O)/N=C(\N)NCc1ccc(Cl)c(Cl)c1
Ki (Beta-secretase 1 [1]): 2400 nM

Cc1onc(-c2ccccc2)c1C(=O)NC(N)=NCc1ccc(Cl)c(Cl)c1
Ki (Beta-secretase 1 [1]): 8800 nM

COc1ccc(-c2noc(C)c2C(=O)/N=C(\N)NCc2cc(C)c(NC(=O)CCSC)c(Cl)c2)cc1
Ratio (Beta-secretase 1 [2]): 21

COc1ccc(-c2noc(C)c2C(=O)/N=C(\N)NCc2cc(C)cc(C)c2)cc1
Ki (Beta-secretase 1 [1]): 280 nM

Cc1onc(-c2ccccc2)c1C(=O)NC(N)=NCc1cccc2ccccc12
Ki (Beta-secretase 1 [1]): 3900 nM

CCC(=O)Nc1c(C)cc(CN/C(N)=N/C(=O)c2c(-c3ccc(OC)cc3)noc2C)cc1Cl
Ratio (Beta-secretase 1 [2]): 19

COC/C=C/c1cc(Cl)cc(CN/C(N)=N/C(=O)c2c(-c3ccc(OC)cc3)noc2C)c1
Ki (Beta-secretase 1 [1]): 150 nM

COc1ccc(-c2nsc(C)c2C(=O)/N=C(\N)NCc2cc(Cl)c(NC(C)=O)c(Cl)c2)cc1
Ratio (Beta-secretase 1 [2]): 62 | Ki (Beta-secretase 1 [1]): 5 nM | IC50 (Beta-secretase 1 [5]): > 10000 nM | IC50 (Beta-secretase 1 [3]): 310 nM | IC50 (Beta-secretase 1 [6]): 310 nM | Ratio IC50 (Beta-secretase 1 [4]): > 32

Cc1onc(-c2ccccc2)c1C(=O)/N=C(\N)NCc1ccccc1
Ki (Beta-secretase 1 [1]): > 10000 nM

COc1ccc(-c2nsc(C)c2C(=O)NC(N)=NCc2cc(Cl)c(NC(=O)CN3CCC3)c(Cl)c2)cc1
Ki (Beta-secretase 1 [1]): 4 nM | IC50 (Beta-secretase 1 [5]): 180 nM | IC50 (Beta-secretase 1 [3]): 8 nM | IC50 (Beta-secretase 1 [6]): 8 nM

COc1ccc(-c2[nH]nc(C)c2C(=O)/N=C(\N)NCc2cc(Cl)cc(Cl)c2)cc1
Ki (Beta-secretase 1 [1]): 210 nM

COc1ccc(-c2noc(C)c2C(=O)NC(N)=NCc2cc(Cl)c(NC(=O)CS(C)(=O)=O)c(Cl)c2)cc1
Ki (Beta-secretase 1 [1]): 30 nM | IC50 (Beta-secretase 1 [3]): 1900 nM

COc1ccc(-c2noc(C)c2C(=O)/N=C(\N)NCc2cc(Cl)cc(-c3cccnc3)c2)cc1
Ki (Beta-secretase 1 [1]): 1800 nM

COc1ccc(-c2nsc(C)c2C(=O)/N=C(\N)NCc2cc(Cl)cc(Cl)c2)cc1
Ki (Beta-secretase 1 [1]): 290 nM | IC50 (Beta-secretase 1 [3]): > 5000 nM

COc1ccc(-c2noc(C)c2C(=O)/N=C(\N)NCc2cc(Cl)c(NC(=O)CS(C)(=O)=O)c(Cl)c2)cc1
Ratio (Beta-secretase 1 [2]): 63

COc1ccc(-c2nsc(C)c2C(=O)NC(N)=NCc2cc(C)c(NC(=O)CNCc3ccccc3)c(Cl)c2)cc1
Ki (Beta-secretase 1 [1]): 10 nM | IC50 (Beta-secretase 1 [3]): 70 nM

COc1ccc(-c2noc(C)c2C(=O)/N=C(\N)NCc2cc(C)c(NC(=O)c3ccco3)c(Cl)c2)cc1
Ratio (Beta-secretase 1 [2]): 23 | Ki (Beta-secretase 1 [1]): 60 nM | IC50 (Beta-secretase 1 [3]): 1400 nM

COc1ccc(-c2nsc(C)c2C(=O)/N=C(/N)NCc2cc(Cl)c(N)c(Cl)c2)cc1
Ki (Beta-secretase 1 [1]): 40 nM | IC50 (Beta-secretase 1 [5]): 1700 nM | IC50 (Beta-secretase 1 [3]): 630 nM | IC50 (Beta-secretase 1 [6]): 1030 nM

Cc1onc(-c2ccc(F)cc2)c1C(=O)NC(N)=NCc1ccccc1
Ki (Beta-secretase 1 [1]): > 10000 nM

COc1ccc(-c2nsc(C)c2C(=O)NC(N)=NCc2cc(C)c(NC(=O)CN(C)C)c(Cl)c2)cc1
Ki (Beta-secretase 1 [1]): 20 nM | IC50 (Beta-secretase 1 [3]): 20 nM

COc1ccc(-c2c(C(=O)/N=C(\N)NCc3cc(Cl)cc(Cl)c3)c(C)nn2C)cc1
Ki (Beta-secretase 1 [1]): 4000 nM

COc1ccc(-c2nsc(C)c2C(=O)/N=C(\N)NCc2cc(C)c(NC(=O)CNCc3ccccc3)c(Cl)c2)cc1
Ratio (Beta-secretase 1 [2]): 7

COc1ccc(-c2noc(C)c2C(=O)/N=C(\N)NCc2cc(Cl)c(NC(C)=O)c(Cl)c2)cc1
Ki (Beta-secretase 1 [1]): 10 nM | IC50 (Beta-secretase 1 [3]): 790 nM

COc1ccc(-c2nsc(C)c2C(=O)NC(N)=NCc2cc(Cl)c(NC(=O)CNCc3ccccc3)c(Cl)c2)cc1
Ki (Beta-secretase 1 [1]): 6 nM | IC50 (Beta-secretase 1 [3]): 140 nM

COc1ccc(-c2noc(C)c2C(=O)/N=C(\N)NCc2cc(C)c(NC(=O)C3CC3)c(Cl)c2)cc1
Ratio (Beta-secretase 1 [2]): 16 | Ki (Beta-secretase 1 [1]): 20 nM | IC50 (Beta-secretase 1 [3]): 330 nM

COc1ccc(-c2noc(C)c2C(=O)/N=C(\N)NCc2cc(Cl)cc(Cl)c2)cc1
Ki (Beta-secretase 1 [1]): 670 nM | IC50 (Beta-secretase 1 [5]): 3300 nM | IC50 (Beta-secretase 1 [3]): 1600 nM | IC50 (Beta-secretase 1 [6]): 3900 nM | Ratio IC50 (Beta-secretase 1 [4]): 0.8

COc1ccc(-c2onc(C)c2C(=O)/N=C(\N)NCc2cc(Cl)cc(Cl)c2)cc1
Ki (Beta-secretase 1 [1]): 860 nM

COc1ccc(-c2noc(C)c2C(=O)NC(N)=NCc2cc(Cl)cc(-c3ccsc3)c2)cc1
Ki (Beta-secretase 1 [1]): 1200 nM

COc1ccc(-c2noc(C)c2C(=O)/N=C(\N)NCc2cc(Cl)c(NC(=O)CN(C)C)c(Cl)c2)cc1
Ratio (Beta-secretase 1 [2]): 4 | Ki (Beta-secretase 1 [1]): 50 nM | IC50 (Beta-secretase 1 [3]): 210 nM

COc1ccc(-c2noc(C)c2C(=O)/N=C(\N)NCc2cc(Cl)c(NC(=O)C3CC3)c(Cl)c2)cc1
Ratio (Beta-secretase 1 [2]): 32 | Ki (Beta-secretase 1 [1]): 50 nM | IC50 (Beta-secretase 1 [3]): 1600 nM

COc1ccc(-c2noc(C)c2C(=O)/N=C(\N)NCc2ccccc2)cc1
Ki (Beta-secretase 1 [1]): 4000 nM

Cc1onc(-c2ccc(F)cc2)c1C(=O)NC(N)=NCc1cc(Cl)cc(Cl)c1
Ki (Beta-secretase 1 [1]): 2200 nM

COc1ccc(-c2noc(C)c2C(=O)/N=C(\N)NCc2cc(Cl)c(NC(=O)CSC)c(Cl)c2)cc1
Ratio (Beta-secretase 1 [2]): 40

COc1ccc(-c2noc(C)c2C(=O)/N=C(\N)NCc2cc(Cl)c(O)c(Cl)c2)cc1
Ki (Beta-secretase 1 [1]): 480 nM

Cc1onc(-c2ccccc2)c1C(=O)/N=C(\N)NCc1cc(Cl)cc(Cl)c1
Ki (Beta-secretase 1 [1]): 3900 nM

COc1ccc(-c2noc(C)c2C(=O)/N=C(\N)NCc2cc(Cl)cc(Br)c2)cc1
Ki (Beta-secretase 1 [1]): 510 nM

COc1ccc(-c2noc(C)c2C(=O)NC(N)=NCc2ccc(Cl)c(Cl)c2)cc1
Ki (Beta-secretase 1 [1]): 910 nM

COc1ccc(-c2nsc(C)c2C(=O)/N=C(\N)NCc2cc(C)c(NC(C)=O)c(Cl)c2)cc1
Ratio (Beta-secretase 1 [2]): 12

COc1ccc(-c2nsc(C)c2C(=O)NC(N)=NCc2cc(C)c(NC(C)=O)c(Cl)c2)cc1
Ki (Beta-secretase 1 [1]): 20 nM | IC50 (Beta-secretase 1 [3]): 240 nM

COc1ccc(-c2noc(C)c2C(=O)/N=C(\N)NCc2cc(C)c(NC(=O)CN(C)C)c(Cl)c2)cc1
Ratio (Beta-secretase 1 [2]): 2 | Ki (Beta-secretase 1 [1]): 50 nM | IC50 (Beta-secretase 1 [3]): 90 nM

COc1ccc(-c2noc(C)c2C(=O)NC(N)=NCc2cc(C)c(NC(=O)CCSC)c(Cl)c2)cc1
Ki (Beta-secretase 1 [1]): 30 nM | IC50 (Beta-secretase 1 [3]): 640 nM

CCC/C=C/c1cc(Cl)cc(CN=C(N)NC(=O)c2c(-c3ccc(OC)cc3)noc2C)c1
Ki (Beta-secretase 1 [1]): 850 nM

COc1ccc(-c2nsc(C)c2C(=O)/N=C(\N)NCc2cccc3ccccc23)cc1
Ki (Beta-secretase 1 [1]): 500 nM

C=Cc1cc(Cl)cc(CN/C(N)=N/C(=O)c2c(-c3ccc(OC)cc3)noc2C)c1
Ki (Beta-secretase 1 [1]): 430 nM

CCNCC(=O)Nc1c(Cl)cc(CN/C(N)=N/C(=O)c2c(-c3ccc(OC)cc3)nsc2C)cc1Cl
Ratio (Beta-secretase 1 [2]): 2 | Ki (Beta-secretase 1 [1]): 10 nM | IC50 (Beta-secretase 1 [3]): 20 nM

COc1ccc(-c2nsc(C)c2C(=O)/N=C(\N)NCc2cc(Cl)c(NS(C)(=O)=O)c(Cl)c2)cc1
Ki (Beta-secretase 1 [1]): 280 nM

COc1ccc(-c2noc(C)c2C(=O)/N=C(\N)NCc2cccc3ccccc23)cc1
Ki (Beta-secretase 1 [1]): 1700 nM

CCC(=O)Nc1c(C)cc(CN=C(N)NC(=O)c2c(-c3ccc(OC)cc3)noc2C)cc1Cl
Ki (Beta-secretase 1 [1]): 40 nM | IC50 (Beta-secretase 1 [3]): 780 nM

COc1ccc(-c2nsc(C)c2C(=O)/N=C(\N)NCc2ccc3ccccc3c2)cc1
Ki (Beta-secretase 1 [1]): 870 nM
